Experimental data as given in paper PMC3775761, “Structure-Activity Relationships of FMRF-NH2 Peptides Demonstrate A Role for the Conserved C Terminus and Unique N-Terminal Extension in Modulating Cardiac Contractility” (PLoS ONE, 2013).
Where two headings read alike, the source gives them in different places.

Key:
FMRFa-R = conditions: expressed FMRFa-R protein, cited from earlier work
Experimental: In contrast, when the small, non-aromatic residue A was substituted for F, strong contacts which anchored FMRF-NH2 in the FMRFa-R binding pocket were lost, which substantially weakened ligand-receptor interactions (Figure 5, Tables 5 and 6). In addition, the F ... || Next, the effect of the analog SDNAMRF-NH2 was measured on heart rate at 1 µM. SDNAMRF-NH2 increased adult heart rate by 48±10%, a significant effect similar to SDNFMRF-NH2 (Figure 12, Table 14). The effect of the peptide analog was analyzed in adult because it is a developmental stage in which a robust response occurs which thus allows for subtle changes to be observed. […] Past studies analyzed the effects of some or all of these peptides in a bioassay; yet no report to date investigated th ...

[1] = system: adult, larval, and pupal heart; assay: in vivo semi-isolated heart rate assay; parameters: species or system Drosophila melanogaster; conditions: peptide 1 µM; for % increase in heart rate, Adult: adult heart (1 day adults); for % increase in heart rate, Adult / % increase in heart rate, Larval / % increase in heart rate, Pupal: maximum response within 10-minute recording, mean ± S.E.M., n≥6, basal heart rate = 100%; for % increase in heart rate, Larval: larval heart (wandering 3rd instar larvae); for % increase in heart rate, Pupal: pupal heart (white prepupae)
Experimental: D. melanogaster Oregon R strain flies were maintained on cornmeal molasses media at 24°C under a 12 hour light/dark cycle. Animals analyzed were wandering 3rd instar larvae, white prepupae, and 1 day adults. The effects of peptides and physiological saline, the carrier, were measured on both females and males; no sex-specific response was observed. The in vivo semi-isolated heart rate assays were performed according to a previously reported protocol. The rate of heart contractions for each animal was measured prior to application of a peptide (1 µM) or saline, the carrier, to provide a measure of basal rate. Animals (n≥6) were used only once. During and after delivery of the peptide or saline, contractions were continuously recorded for a 10-minute time period. The data analyzed were the maximum responses within the 10-minute recording period reported as mean values ± S.E.M. Data are reported as % basal heart rate where the frequency of contractions before application of peptide or saline is considered a measure of the baseline or basal level. Effects of peptides were compared to saline using Single Factor ANOVA with significance set at p ≤ 0.01; a peptide was considered to be active if its effects were statistically different from saline. The statistical outcomes were identical when calculated using two different data packages, Microsoft Excel and IBM SPSS.

[2] = Chinese hamster ovary cells, read-out: EC50, ligand-FMRFa-R binding
[3] = read-out: EC50, peptides bind FMRFa-R

| Substance | EC50 (FMRFa-R; [2]) [nM] | % increase in heart rate, Adult [1] [%] | % increase in heart rate, Larval [1] [%] | % increase in heart rate, Pupal [1] [%] | EC50 (FMRFa-R; [3]) [nM] | heart rate return to baseline ([1]; pupal heart, recording period) |
| --- | --- | --- | --- | --- | --- | --- |
| AMRF-NH2 [analog replacing F1 with A] | 3220 |  |  |  |  |  |
| DPKQDFMRF-NH2 [D. melanogaster FMRF-NH2 peptide encoded in dFMRFa] |  | 44±11 | 20±5 | 21±5 | 2 |  |
| FMRF-NH2 [conserved C-terminal tetrapeptide; molluscan cardioexcitatory tetrapeptide] | 28 | 37±11 | 28±8 | 17±4 |  |  |
| PDNFMRF-NH2 [D. melanogaster FMRF-NH2 peptide encoded in dFMRFa] |  | 51±12 | 26±5 | 27±7 | 1.8 | did not return to baseline within the recording period |
| SDNAMRF-NH2 [designed analog of SDNFMRF-NH2 with F to A substitution] | 102 | 48±10 |  |  |  |  |
| SDNFMRF-NH2 [D. melanogaster FMRF-NH2 peptide encoded in dFMRFa] | 1.9 | 39±11 | 24±8 | 15±4 |  |  |
| SPKQDFMRF-NH2 [D. melanogaster FMRF-NH2 peptide encoded in dFMRFa] |  | 32±8 | 23±6 | 12±1 | 2.5 |  |
| TPAEDFMRF-NH2 [D. melanogaster FMRF-NH2 peptide encoded in dFMRFa] |  | 40±2 | 20±4 | 26±8 | 2.8 |  |
| YMRF-NH2 [analog in which Y replaced F1] | 31 |  |  |  |  |  |
